These results are taken from ChEMBL document CHEMBL1201862, “PubChem BioAssay data set” (2004).

Activity calls are given as the source filed them.

The nature of test [1]: growth suppression of beta-catenin-knockout colon cells, dose response, cell-based, HCT116, human colon tumor (AID 1045).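 Further: HCT116 colon tumor cells with beta catenin knocked out; cells exposed to compound for 60 hours.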 Type of test: functional.
Test [2] is described as follows: inhibitors of PGC1a acetylation in cells, dose response, cell-based, cherry-picked samples (AID 720514).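 Further: potency may reflect raised or lowered acetylation signal.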 Type of test: functional.
A short description of test [3]: growth suppression of PTEN-null colon cells, dose response, cell-based, HCT116 PTEN knockout (AID 1047).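 Further: HCT116 colon tumor cells with PTEN knocked out; cells exposed to compound for 60 hours before readout; potency for loss of cell viability measured by luminescence.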 Type of test: functional.
For test [4], the target named is T1, Microphthalmia-associated transcription factor (Homo sapiens, UniProt O75030).
T1 sequence (O75030 whole entry): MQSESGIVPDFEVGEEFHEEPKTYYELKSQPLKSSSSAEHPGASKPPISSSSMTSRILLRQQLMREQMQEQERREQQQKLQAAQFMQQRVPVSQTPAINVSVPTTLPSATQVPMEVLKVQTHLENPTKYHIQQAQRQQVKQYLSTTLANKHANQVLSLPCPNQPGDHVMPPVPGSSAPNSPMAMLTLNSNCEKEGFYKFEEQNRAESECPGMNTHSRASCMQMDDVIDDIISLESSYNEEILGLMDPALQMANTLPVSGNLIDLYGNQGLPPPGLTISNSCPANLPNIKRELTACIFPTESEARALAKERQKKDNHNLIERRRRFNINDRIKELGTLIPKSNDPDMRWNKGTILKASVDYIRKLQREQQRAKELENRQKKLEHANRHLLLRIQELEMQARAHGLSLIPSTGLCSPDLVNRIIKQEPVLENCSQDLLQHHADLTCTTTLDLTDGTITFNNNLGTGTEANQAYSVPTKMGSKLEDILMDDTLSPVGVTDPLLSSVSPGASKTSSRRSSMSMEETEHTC
The test can be described thus: TRPM1 promoter luciferase signal decrease, dose response, MITF inhibitor project, cell-based, SK-MEL-5, cherry-picked, set 3 (AID 493073).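 Further: SK-MEL-5 melanoma cells with luciferase driven by the MITF target TRPM1 promoter.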 Type of test: functional.

Test [5] has as its target Induced myeloid leukemia cell differentiation protein Mcl-1 (Homo sapiens, UniProt Q07820). Type of test: functional.
The nature of test [6]: THP-1 cell cytotoxicity, dose response, cytotoxicity control for Vif-APOBEC3G degradation inhibitor project, THP-1 cells (AID 1117359). Type of test: functional. The following applies: Human immunodeficiency virus 1, THP-1.
The next test deals with Estrogen receptor beta (Homo sapiens, UniProt Q92731).
Chain of Estrogen receptor beta (Q92731 whole entry): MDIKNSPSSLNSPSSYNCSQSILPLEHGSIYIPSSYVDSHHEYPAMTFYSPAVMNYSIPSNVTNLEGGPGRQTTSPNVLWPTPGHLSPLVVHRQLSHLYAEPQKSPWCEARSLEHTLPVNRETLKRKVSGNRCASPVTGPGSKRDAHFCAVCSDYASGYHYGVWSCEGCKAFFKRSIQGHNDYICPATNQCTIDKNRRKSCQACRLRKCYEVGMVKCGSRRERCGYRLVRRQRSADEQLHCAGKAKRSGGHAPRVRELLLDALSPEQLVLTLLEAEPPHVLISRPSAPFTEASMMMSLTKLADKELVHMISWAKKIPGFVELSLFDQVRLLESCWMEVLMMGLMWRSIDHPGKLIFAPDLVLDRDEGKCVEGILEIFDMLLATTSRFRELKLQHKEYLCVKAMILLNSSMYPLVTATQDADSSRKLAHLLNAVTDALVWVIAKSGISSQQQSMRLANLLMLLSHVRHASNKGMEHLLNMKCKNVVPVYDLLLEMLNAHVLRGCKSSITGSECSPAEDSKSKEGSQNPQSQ
The target of test [7] is T2, Mannose-6-phosphate isomerase (Homo sapiens, UniProt P34949).
T2 sequence (P34949 whole entry): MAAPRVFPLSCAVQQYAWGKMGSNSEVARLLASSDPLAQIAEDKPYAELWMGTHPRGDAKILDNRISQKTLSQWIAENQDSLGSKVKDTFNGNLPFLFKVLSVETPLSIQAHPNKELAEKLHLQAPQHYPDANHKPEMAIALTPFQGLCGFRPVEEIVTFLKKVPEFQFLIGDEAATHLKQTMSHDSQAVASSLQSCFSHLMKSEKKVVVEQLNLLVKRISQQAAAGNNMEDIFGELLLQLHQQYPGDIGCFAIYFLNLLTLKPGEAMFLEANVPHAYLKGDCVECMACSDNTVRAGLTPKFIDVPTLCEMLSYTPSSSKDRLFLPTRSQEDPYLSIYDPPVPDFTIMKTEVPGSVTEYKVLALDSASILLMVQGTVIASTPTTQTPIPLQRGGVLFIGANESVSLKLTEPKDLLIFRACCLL
The test can be described thus: human PMI inhibitors, high substrate, primary screen, biochemical, fluorescence intensity, high mannose 6-phosphate (AID 1220).

Test [8] has as its target T3, Oxysterols receptor LXR-beta (Homo sapiens, UniProt P55055).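 Further: Cell-based luminescence dose-response assay of agonist activity at LXR, run as a confirmatory counterscreen to a daf-12 agonist screen; HEK293 cells with Gal4-LXR fusion and GAL4-driven luciferase reporter; agonist potency from rising luciferase signal of a Gal4-LXR reporter.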
T3 sequence (P55055 whole entry): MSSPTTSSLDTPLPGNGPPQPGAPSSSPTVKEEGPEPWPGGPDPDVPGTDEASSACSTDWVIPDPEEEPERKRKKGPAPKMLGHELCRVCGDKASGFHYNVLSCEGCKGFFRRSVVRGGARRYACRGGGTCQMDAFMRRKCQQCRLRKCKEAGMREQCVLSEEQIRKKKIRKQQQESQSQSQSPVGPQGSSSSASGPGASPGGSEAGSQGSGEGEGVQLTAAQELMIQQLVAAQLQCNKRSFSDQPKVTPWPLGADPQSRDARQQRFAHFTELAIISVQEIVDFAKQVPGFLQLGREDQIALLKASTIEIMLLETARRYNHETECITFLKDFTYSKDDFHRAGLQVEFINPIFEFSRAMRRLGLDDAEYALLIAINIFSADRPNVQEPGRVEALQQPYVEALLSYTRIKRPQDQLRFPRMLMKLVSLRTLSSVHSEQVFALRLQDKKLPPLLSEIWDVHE
Type of test: functional, cell-based.

Test [9] is described as follows: HepG2 cell cytotoxicity, dose response, cytotoxicity control, ATP luminescence, cherry-pick, activator set 2 (AID 1053143). Type of test: functional, cell-based.
Test [10] in a line: P. falciparum Dd2 growth inhibitors, dose response, SYBR Green, cherry-picked samples (AID 1159567). Type of test: functional, cell-based.
Test [11] is described as follows: P. falciparum 3D7-ScDHODH growth inhibitors, dose response, SYBR Green, dry powder samples (AID 1159570).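 Further: parasite growth measured after 72 hours of compound exposure.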 Type of test: functional, cell-based.
A short description of test [12]: HepG2 cell cytotoxicity, dose response, cytotoxicity control, plate reader, dry powder samples (AID 1159569).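 Further: inhibitor potency with signal falling toward the positive control level.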 Type of test: functional, cell-based.
Test [13] is described as follows: P. falciparum ATP4 D1247Y mutant growth inhibitors, dose response, NITD609-resistant line, SYBR Green, dry powder (AID 1159571).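 Further: parasites synchronized at ring stage by sorbitol before testing.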 Type of test: functional, cell-based.
The nature of test [14]: HepG2 cell cytotoxicity, dose response, cytotoxicity control, cherry-picked samples (AID 1159577). Type of test: functional, cell-based.
The nature of test [15]: P. falciparum Dd2 growth inhibitors, dose response, SYBR Green, dry powder samples (AID 1159566).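 Further: potency for growth inhibition with lower SYBR green DNA signal.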 Type of test: functional, cell-based.
Test [16] concerns the target RNA-editing ligase 1, mitochondrial (Trypanosoma brucei brucei, UniProt P86926). The test can be described thus: TbREL1 ligase inhibitors, dose response, biochemical, fluorescence, Trypanosoma brucei (AID 1117295). Type of test: functional.
Test [17] is described as follows: cytotoxicity toward NIH3T3 fibroblasts, dose response, counter-screen, cell-based, ATP luminescence, mouse fibroblasts (AID 2010).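 Further: cells exposed to compound for about 90 hours before reading.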 Type of test: functional.
Test [18] can be described thus: inhibitors of intracellular T. cruzi replication, confirmation, NIH3T3 host cells, beta-gal luminescence (AID 2044).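 Further: intracellular parasites grown in NIH/3T3 mouse fibroblasts as host cells; luminescent beta-galactosidase reporter signal from transgenic T. cruzi replicating inside host cells; inhibitors lower the luminescence signal.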 Type of test: functional, cell-based.
For test [19], the target named is T4, Dual specificity protein phosphatase 3 (Homo sapiens, UniProt P51452). The test can be described thus: VHR1 phosphatase inhibitors, biochemical (AID 1878).
T4 sequence (P51452 whole entry): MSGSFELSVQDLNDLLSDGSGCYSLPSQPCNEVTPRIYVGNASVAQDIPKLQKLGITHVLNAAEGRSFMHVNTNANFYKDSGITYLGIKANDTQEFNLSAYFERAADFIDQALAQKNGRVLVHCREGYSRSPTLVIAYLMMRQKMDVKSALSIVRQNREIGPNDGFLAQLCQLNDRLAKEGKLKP
In test [20] the target is T4, Dual specificity protein phosphatase 3. The test can be described thus: VHR1 phosphatase inhibitors, primary screen, biochemical, absorbance, uHTS (AID 1654).
In test [21] the target is T5, Dual specificity protein phosphatase 6 (Rattus norvegicus, UniProt Q64346).
T5 sequence (Q64346 whole entry): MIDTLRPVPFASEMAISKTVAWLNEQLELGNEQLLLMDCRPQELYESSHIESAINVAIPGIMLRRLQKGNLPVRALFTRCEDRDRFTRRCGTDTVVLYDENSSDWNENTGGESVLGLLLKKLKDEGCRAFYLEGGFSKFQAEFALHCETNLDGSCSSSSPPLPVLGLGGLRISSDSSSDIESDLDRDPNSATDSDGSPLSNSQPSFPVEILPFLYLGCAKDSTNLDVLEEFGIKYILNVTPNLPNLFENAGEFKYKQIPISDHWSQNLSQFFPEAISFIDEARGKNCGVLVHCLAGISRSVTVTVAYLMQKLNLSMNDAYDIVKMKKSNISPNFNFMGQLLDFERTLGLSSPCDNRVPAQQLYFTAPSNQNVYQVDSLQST
The test can be described thus: MKP-3 phosphatase inhibitors, primary screen, biochemical, rat enzyme, in vitro (AID 425).

Test [22] can be described thus: SNU-C1 cell viability reduction, dose response, CellTiter-Glo luminescence (AID 1117323). Type of test: functional, cell-based.
A short description of test [23]: cytotoxicity toward Colo320 cells – cell-based, CellTiter-Glo luminescence, IC50, dose response (AID 1117334). Type of test: functional. The following applies: COLO 320. In general terms: ATP-based viability assays read luminescence as a measure of living cells.
A short description of test [24]: non-specific cell cytotoxicity, dose response, cytotoxicity control for PAX8 inhibitor project, plate reader, dry powder samples (AID 743021). Type of test: functional, cell-based.
A short description of test [25]: HCT116 cell viability decrease, GSK3B pretreatment – CellTiter-Glo, IC50, dose response (AID 1117339). Type of test: functional. The following applies: HCT-116.
In the next test the test system is P388. The test can be described thus: cells. The following applies: Mus musculus. Type of test: functional.
The next test concerns SN12K1. The test can be described thus: cells. Type of test: functional. The following applies: Homo sapiens.
Test [26] in a line: RKO cell viability reduction, dose response, CellTiter-Glo luminescence (AID 1117322). Type of test: functional.
The nature of test [27]: HeLa 4N DNA content increase, dose response, cell-based, IC50 (AID 1117351). Type of test: functional.
Test [28] in a line: HeLa 2N DNA content increase, dose response, cell-based, IC50 (AID 1117349). Type of test: functional.
The next test deals with P388/ADR. The test can be described thus: cells. Type of test: functional. The following applies: Mus musculus.
The nature of test [29]: cytotoxicity toward HT-29 cells – cell-based, CellTiter-Glo luminescence, IC50, dose response (AID 1117330). Type of test: functional.
Test [30] in a line: CellTiter-Glo luminescent dose response of DLD-1 viability loss (AID 1117352). Type of test: functional.
The nature of test [31]: cytotoxicity toward HCT116 cells – cell-based, CellTiter-Glo luminescence, IC50, dose response (AID 1117332). Type of test: functional. The following applies: HCT-116.
The nature of test [32]: Concentration-dependent survival of SW480 colon cancer line, luminescence detection with CellTiter-Glo, half-maximal inhibitory concentration (AID 1117338). Type of test: functional.

Chain of Induced myeloid leukemia cell differentiation protein Mcl-1 (Q07820 whole entry): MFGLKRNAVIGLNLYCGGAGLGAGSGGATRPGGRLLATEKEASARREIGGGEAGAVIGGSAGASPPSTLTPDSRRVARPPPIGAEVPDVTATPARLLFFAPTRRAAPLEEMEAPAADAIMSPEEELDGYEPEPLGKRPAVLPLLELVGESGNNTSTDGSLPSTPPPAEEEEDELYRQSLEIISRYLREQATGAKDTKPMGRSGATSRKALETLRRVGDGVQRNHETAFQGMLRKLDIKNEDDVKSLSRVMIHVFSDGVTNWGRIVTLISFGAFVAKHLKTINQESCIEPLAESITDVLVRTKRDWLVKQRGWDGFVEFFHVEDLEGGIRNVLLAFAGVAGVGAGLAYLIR
Chain of RNA-editing ligase 1, mitochondrial (P86926 whole entry): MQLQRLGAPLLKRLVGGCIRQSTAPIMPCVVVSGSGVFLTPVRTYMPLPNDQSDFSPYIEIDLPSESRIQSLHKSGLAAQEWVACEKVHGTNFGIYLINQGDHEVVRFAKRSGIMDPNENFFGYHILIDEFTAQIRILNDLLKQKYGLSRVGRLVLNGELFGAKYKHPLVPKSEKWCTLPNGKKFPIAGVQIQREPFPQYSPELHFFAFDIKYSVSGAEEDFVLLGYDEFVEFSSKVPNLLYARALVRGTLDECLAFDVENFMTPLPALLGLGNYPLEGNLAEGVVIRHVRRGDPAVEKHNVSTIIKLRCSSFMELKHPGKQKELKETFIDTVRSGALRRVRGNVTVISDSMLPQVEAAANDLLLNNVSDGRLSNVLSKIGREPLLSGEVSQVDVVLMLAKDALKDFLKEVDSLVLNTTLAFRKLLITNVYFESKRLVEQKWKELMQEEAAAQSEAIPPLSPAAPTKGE

By EC50 is commonly meant the concentration needed to bring the measured effect to its halfway point. What is called AC50 is the concentration at which the activity in the assay is half-maximal. As a reminder, the IC50 is the midpoint of a concentration-inhibition curve. Turning to `C=CCn1c(C)cc(C(=O)Cn2ncc(Cl)c(Cl)c2=O)c1C`, the EC50 in test [1] is 2.12 µM (active); in test [3], 3.08 µM (active). For the same molecule, the AC50 in [2] is 5.68 µM (active); in test [4] it was 9.97 µM (active). In test [5], the IC50 was 5.14 µM (active).

Broadly, the CC50 is the concentration giving 50% cytotoxicity. As to `Cc1ccccc1S(=O)(=O)Cc1ccc(C(=O)NCCCN2CCC(C)CC2)o1`, the CC50 in [6] was > 40 µM (active).

With `CC1(C)CCCC2=C1CC1C(=O)N(O)C(=O)C1C2` (configuration not stated), the IC50 against Estrogen receptor beta is reported as > 50 µM (not active).

As to `CC1Cc2ccccc2N1C(=O)CSc1nnc(-c2ccc(S(=O)(=O)N3CCCC3)cc2)n1C` (configuration not stated), the IC50 in test [7] is recorded as > 50 µM (not active).

In the case of `Cc1ccc(-c2cnc3ccccc3n2)cc1C`, the EC50 (in [8]; in the test “cells”) was > 67.6 µM (inactive) throughout. In test [9], the AC50 was 26 µM (active).

With `CC(C)CC#Cc1ccc2c(c1)O[C@H](CN(C)Cc1ccccc1)[C@@H](C)CN([C@H](C)CO)S2(=O)=O`, in test [2], the AC50 was 16.4 µM (active).

`COc1ccc2c3c(n(C)c2c1)[C@H](CO)N(Cc1ccc(Cl)cc1)CC31CCN(CC2CC2)CC1`: the AC50 was 2.33 µM (active) in test [10]; 2.85 µM (active) in test [11]; 19.8 µM (active) in test [12]; 2.65 µM (active) in [13]; > 39 µM (inactive) in test [14]; 2.23 µM (active) in test [15].

Consider `COc1cccc(CN2CCCCN3[C@H](CO)[C@@H](c4ccc(C#Cc5cccnc5)cc4)[C@H]3C2)c1`, for which the AC50 in test [10] is 0.859 µM (active); in test [11], 2.04 µM (active); in test [12], 14 µM (active); in test [13] it was 0.934 µM (active); in test [14], 24 µM (active); in [15] it was 0.56 µM (active).

Consider `COC(=O)C1=C(C)N(Cc2cccc(C(F)(F)F)c2)C(NCC2CC2)=NC1c1ccccc1C(F)(F)F` (configuration not stated), for which the IC50 in test [16] is > 96.6 µM (inactive).

On to `C=C1N(C)c2cc([N+](=O)[O-])c(N)cc2C1(C)C`, for which the values for the EC50 in test [17] and in test [18] were > 60 µM (not active) and 5.96 µM (active), respectively. Moreover, the IC50 in test [7] is 11.5 µM (active).

For `COC(=O)c1ccc(O)c2nc3c(C=O)c(O)cc(O)c3nc12` [LOMOFUNGIN], the IC50 is < 1.23 µM (inactive) in test [19], 2.06 µM (active) in [20], 48.2 µM (active) in test [21] and 3.76 µM (active) in test [5]. Moreover, in test [6], the CC50 is 8.31 µM (active).

For orientation: GI50 means the concentration giving 50% growth inhibition. As for `Nc1nc2[nH]cnc2c(=S)[nH]1` [THIOGUANINE], the IC50 in [22] is 4.4 µM (active); in test [23], 0.373 µM (active); in [25], 0.163 µM (active); in test [26], 0.343 µM (active); in [27] it was > 10 µM (inactive); in [28] it was > 10 µM (inactive). Moreover, the IC50 in [29] is 0.0493 µM (active); in test [30], 0.108 µM (active); in [31], 0.139 µM (active); in [32] it was 0.402 µM (active). Further, in test [24], the AC50 was 1.99 µM (active). The GI50 in the test with P388 is 0.0762 µM (active); in the test on SN12K1, 0.281 µM (active); in the test with P388/ADR it was 0.181 µM (active).
